# Measured values published in PMC9312958, “A Novel and Selective Dopamine Transporter Inhibitor, (S)-MK-26, Promotes Hippocampal Synaptic Plasticity and Restores Effort-Related Motivational Dysfunctions” (Biomolecules, 2022).
# Legend:
# hNET = molecular target: T1, hNET (Homo sapiens, UniProt P23975); experiment: Uptake inhibition assay in HEK293 cells expressing hNET; assay type: cell-based
# T1 construct: expressed in transfected cells
# Experimental: Human embryonic kidney 293 cells (HEK293 cells) were cultivated in Dulbecco’s Modified Eagle Medium (DMEM), containing 10% heat-inactivated fetal calf serum (FCS; 100 mL/L), streptomycin (100 μg/100 mL) and penicillin ([…]). Geneticin (50 μg/mL) was added to select cells stably expressing the human isoforms of dopamine, norepinephrine and serotonin transporter (hDAT, hNET, and hSERT, respectively) as described earlier. Cell lines were maintained in culture in humidified atmosphere (37 °C, 5% CO2), and passaged when reached 80–90% confluency. Cells expressing the desired transporter were seeded the day before the experiment (40,000 cells per well) or two days before the experiments (20,000 cells per well) onto poly-D-lysine (PDL)-coated 96-well plates.
# Uptake inhibition experiments were carried out as reported previously. Ninety-six-well plates containing hDAT-, hNET- or hSERT-expressing cells were washed with Krebs-HEPES buffer (KHB; 25 mM HEPES, 120 mM NaCl, 5 mM KCl, 1.2 mM CaCl2, and 1.2 mM MgSO4 and 5 mM D-glucose, pH = 7.3). Cells were then preincubated with increasing concentrations of the compound diluted in KHB for 6 min. Following the pre-incubation of the cells with the compound, the tritiated substrate (hDAT: 0.15 μM [^3H]DA; hNET: 0.05 μM [^3H]MPP^+; hSERT: 0.1 μM [^3H]5-HT) was added to the wells. The uptake was terminated by removal of tritiated substrate and by washing the cells with ice-cold KHB after 1 min (for hDAT and hSERT) or 3 min (for hNET). Thereafter, 200 μL of Ultima Gold^TM XR scintillation cocktail (PerkinElmer, MA, USA) was added, the plates were shaken and the radioactivity accumulated into the cells determined in a Wal-lac 1450 MicroBeta TriLux Liquid Scintillation Counter & Lumi (GMI, Ramsey, MN, USA). Non- specific tritiated substrate uptake was measured in the presence of 100 μM cocaine (for hDAT and hNET) or 10 μM paroxetine (for hSERT), and subtracted from the data. Uptake in the presence of test drugs was normalized to the uptake in the presence of the vehicle.
# [1] = system: extracellular dopamine levels; experiment: In vivo microdialysis of extracellular dopamine (mPFC, NAc shell, NAc core); design: species or system Male Sprague Dawley rats; details: for DA Concentrations (as Determined from AUCs): mean ± SEM
# Experimental: Male Sprague Dawley rats (250–350 g, Janvier, France) were used for all in vivo microdialysis experiments. Animals were kept in groups of four in standard cages (38 cm × 60 cm × 20 cm) and were acclimated to the facility for at least ten days before the beginning of the experiment under controlled environmental conditions (22 ± 2 °C, 60% humidity, 12 h light/dark cycle, with lights on from 08:00 to 20:00 h), with water and standard laboratory food provided ad libitum. To limit the stress due to manipulation during the experiments, each animal was daily handled for approximately 1–2 min throughout the habituation period and contact with the animal house maintenance personnel was limited to a single attendant. The bedding in the home cages was never changed, neither the day before nor the day of the experiment. All experiments were performed between 10:00–18:00 h. (S)-MK-26 (1 or 10 mg/kg) or vehicle (Kolliphor 30% in distilled water) were freshly prepared on the day of the experiment and i.p. administered at a volume of 1.5 mL/kg. The day before the microdialysis experiment, rats were positioned in a stereotaxic apparatus (Stoelting Co., Wood Dale, IL, USA) and under isoflurane anaesthesia (1.5–2%) (Harvard Apparatus, Holliston, MA, USA) implanted with a vertical microdialysis probe. A probe with dialysis membrane of approximately 2–3 mm of free surface (prepared as previously described) was directed unilaterally at the mPFC (PrL and IL; coordinates: 3.0 mm anterior and 0.7 mm lateral to bregma, and 5.5 mm ventral to dura), at the NAc shell (coordinates: 2.0 mm anterior and 0.8 mm lateral to bregma, and 8.0 mm ventral to dura) or NAc core (coordinates: 1.6 mm anterior and 1.6 mm lateral to bregma, and 7.6 mm ventral to dura), according to the rat brain atlas. On the day of the experiment, the animals were transferred to a sound-proof room and after 1 h habituation period, the microdialysis probe was connected with polyethylene tubing to a CMA/100 microinfusion pump (Harvard Apparatus, Holliston, MA, USA) and perfused with a Ringer’s solution (147 mM NaCl, 3 mM KCl and 1.2 mM CaCl2, pH 6.5) at a flow rate of 2.5 µL/min. After an equilibration period of a 2 h of the perfusion medium with the extracellular fluid, dialysate aliquots of 37.5 µL were collected (every 15 min during the experiment) in polyethylene tubes kept on ice for the determination of dopamine concentrations. After collecting at least four dialysate aliquots, rats were i.p. injected with vehicle or (S)-MK-26 (1 or 10 mg/kg), and ten more dialysate aliquots were collected every 15 min. Dopamine concentrations in the dialysates from the NAc (core and shell) and mPFC were measured by high pressure liquid chromatography (HPLC) on a 7.5 cm × 3.0 mm i.d., Supelcosil C18, 3 µm particle size column, (Supelco, Supelchem, Milan, Italy) coupled to electrochemical detection (Coulochem II, ESA, Cambridge, MA, USA) using a 4011 dual cell, as previously described. Detection was performed in reduction mode, with potentials set to +350 and −180 mV. The mobile phase was 0.06 M citrate/acetate pH 4.2, containing methanol 20% v/v, 0.1 mM EDTA, 1 µM triethylamine, and 0.03 mM sodium dodecyl sulphate at a flow rate of 0.6 mL/min. The sensitivity of the assay was 0.125 pg. At the end of the experiments, the rats were sacrificed by decapitation; the brains were immediately removed from the skull and stored in 4% aqueous formaldehyde for 12–15 days. After this period, 40 µm coronal brain sections were prepared with a freezing microtome, stained with Neutral Red and inspected on a phase contrast microscope. The position of the tip of the microdialysis probe in the NAc (core and shell) and mPFC were then corroborated by following the tract of the microdialysis probe through a series of brain sections. […]
# T1 sequence (P23975 whole entry): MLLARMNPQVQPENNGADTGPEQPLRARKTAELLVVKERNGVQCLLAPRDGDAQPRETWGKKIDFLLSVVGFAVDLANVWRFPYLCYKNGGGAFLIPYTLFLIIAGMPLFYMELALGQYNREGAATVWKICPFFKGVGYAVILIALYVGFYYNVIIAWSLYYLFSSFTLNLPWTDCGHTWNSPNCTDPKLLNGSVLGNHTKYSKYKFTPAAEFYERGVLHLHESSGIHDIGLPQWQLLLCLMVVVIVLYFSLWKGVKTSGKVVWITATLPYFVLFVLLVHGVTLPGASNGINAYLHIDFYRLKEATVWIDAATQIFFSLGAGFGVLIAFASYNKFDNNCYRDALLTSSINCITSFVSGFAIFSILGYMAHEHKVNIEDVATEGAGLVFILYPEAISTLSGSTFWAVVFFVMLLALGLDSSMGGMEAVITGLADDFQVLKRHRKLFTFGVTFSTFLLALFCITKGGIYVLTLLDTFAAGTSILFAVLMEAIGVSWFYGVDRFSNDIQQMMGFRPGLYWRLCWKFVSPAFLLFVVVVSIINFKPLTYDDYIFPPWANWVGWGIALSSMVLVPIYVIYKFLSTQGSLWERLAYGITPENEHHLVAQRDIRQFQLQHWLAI
structure (smiles),measurement,setting,value
"[O-][S@@+](Cc1cncs1)C(c1cccc(Cl)c1)c1cccc(Cl)c1 [(S)-MK-26, (S)-5-(((B(3-chlorophenyl)methyl)sulphinyl)methyl)thiazole]",IC50,hNET,63.5 µM
same,DA Concentrations (as Determined from AUCs),"[1]; NAc core dialysate, 1 mg/kg i.p.",3056 ± 644
same,DA Concentrations (as Determined from AUCs),"[1]; NAc core dialysate, 10 mg/kg i.p.",7861 ± 1697
same,peak increase of extracellular dopamine concentration above basal values,"[1]; NAc core, 1 mg/kg i.p.",about 25%
same,peak increase of extracellular dopamine concentration,"[1]; NAc core, 10 mg/kg i.p., peak 60–75 min after treatment",about 65%
same,DA Concentrations (as Determined from AUCs),"[1]; NAc shell dialysate, 1 mg/kg i.p.",2972 ± 1094
same,DA Concentrations (as Determined from AUCs),"[1]; NAc shell dialysate, 10 mg/kg i.p.",7730 ± 1389
same,peak increase of extracellular dopamine concentration,"[1]; NAc shell, 10 mg/kg i.p., peak 30–45 min after treatment",about 70%
same,DA Concentrations (as Determined from AUCs),"[1]; mPFC dialysate, 1 mg/kg i.p.",3159 ± 223
same,DA Concentrations (as Determined from AUCs),"[1]; mPFC dialysate, 10 mg/kg i.p.",4983 ± 547
same,peak increase of extracellular dopamine concentration,"[1]; mPFC, 1 mg/kg i.p., peak at 30 min after treatment",about 40%
same,peak increase of extracellular dopamine concentration,"[1]; mPFC, 10 mg/kg i.p., peak at 45 min after treatment",about 75%
